Here are results for 3 compounds from PMC6315564, “Geospallins A–C: New Thiodiketopiperazines with Inhibitory Activity against Angiotensin-Converting Enzyme from a Deep-Sea-Derived Fungus Geosmithia pallida FS140” (Marine Drugs, 2018).

Structures are written as SMILES.

Sequence of angiotensin-converting enzyme (ACE) (P12821 30-1306, species assumed): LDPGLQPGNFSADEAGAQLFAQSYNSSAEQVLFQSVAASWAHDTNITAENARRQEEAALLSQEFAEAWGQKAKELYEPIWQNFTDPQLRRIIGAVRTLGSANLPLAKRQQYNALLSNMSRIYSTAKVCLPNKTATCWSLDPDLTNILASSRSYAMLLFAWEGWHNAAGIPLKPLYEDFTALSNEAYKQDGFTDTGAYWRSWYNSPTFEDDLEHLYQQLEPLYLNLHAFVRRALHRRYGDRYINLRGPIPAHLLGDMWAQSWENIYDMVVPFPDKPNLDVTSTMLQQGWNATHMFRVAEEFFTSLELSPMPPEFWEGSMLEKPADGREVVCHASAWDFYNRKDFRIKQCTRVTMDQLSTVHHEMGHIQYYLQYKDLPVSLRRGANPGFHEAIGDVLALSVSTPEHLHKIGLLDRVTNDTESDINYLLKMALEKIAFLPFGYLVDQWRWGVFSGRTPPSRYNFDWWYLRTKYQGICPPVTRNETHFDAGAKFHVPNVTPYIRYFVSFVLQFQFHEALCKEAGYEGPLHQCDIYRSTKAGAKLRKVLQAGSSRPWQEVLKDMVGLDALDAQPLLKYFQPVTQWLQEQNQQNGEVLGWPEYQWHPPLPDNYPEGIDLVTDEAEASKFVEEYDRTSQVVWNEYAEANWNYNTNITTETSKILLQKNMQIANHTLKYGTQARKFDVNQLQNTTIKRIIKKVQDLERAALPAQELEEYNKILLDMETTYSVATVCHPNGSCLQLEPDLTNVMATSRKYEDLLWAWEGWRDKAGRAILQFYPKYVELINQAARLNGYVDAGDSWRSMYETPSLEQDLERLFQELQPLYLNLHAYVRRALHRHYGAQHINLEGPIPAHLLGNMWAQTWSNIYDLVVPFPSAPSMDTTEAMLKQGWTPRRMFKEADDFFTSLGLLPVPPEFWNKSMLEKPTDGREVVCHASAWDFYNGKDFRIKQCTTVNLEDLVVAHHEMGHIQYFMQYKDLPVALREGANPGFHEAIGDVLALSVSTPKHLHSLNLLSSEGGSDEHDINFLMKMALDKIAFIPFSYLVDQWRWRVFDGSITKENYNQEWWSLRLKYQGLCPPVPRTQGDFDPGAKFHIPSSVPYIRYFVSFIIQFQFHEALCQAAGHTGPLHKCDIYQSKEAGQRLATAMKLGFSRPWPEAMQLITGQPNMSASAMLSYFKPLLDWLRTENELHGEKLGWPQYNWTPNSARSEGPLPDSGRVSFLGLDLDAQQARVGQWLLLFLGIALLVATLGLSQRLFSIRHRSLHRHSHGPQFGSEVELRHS

This assay deals with angiotensin-converting enzyme (ACE) (Homo sapiens, UniProt P12821). The assay can be described thus: Angiotensin-converting enzyme (ACE) inhibitory assay (N-hippuryl-His-Leu substrate, HPLC detection of hippuric acid). The assay is classed as biochemical. The note with it: 37 °C, 60 min, captopril positive control, read-out: IC50 against angiotensin-converting enzyme (ACE). As for the experimental part:
ACE inhibitory activity was determined by a previously reported method. In brief, 20 μL thiodiketopiperazines dissolved in DMSO with different concentrations were added to 120 μL N-hippuryl–His–Leu substrates, then preheated in water for 3–5 min; next, 10 μL ACE enzymatic solution was added and mixtures were incubated at 37 °C for 60 min, and 150 μL 1 M HCl was added to stop the reaction. The mixture was loaded for HPLC with a flow rate of 0.5 mL/min by 60% methanol, and the absorbance at 228 nm was detected. To serve as a blank, 10 μL pH 8.3 boric acid replaced the thiodiketopiperazines. Hippuric acid solutions at 10, 20, 40, 60, 80, and 100 μg/mL were prepared using 10 μL pH 8.3 boric acid. One enzymatic unit was defined as the amount giving the production of 1 μM hippuric acid by the catalyzation of the substrate N-hippuryl–His–Leu at 37 °C in 1 min. Captopril was used as a positive control.
In general, IC50 refers to the point on the concentration scale where inhibition reaches its midpoint. As for `CSC1C=CC(OC(C)=O)C2N3C(=O)C(CO)(SC)N(C)C(=O)C3(O)CC12O` (stereo not drawn) [Compound 2, geospallin B], the IC50 worked out at 31 ± 3.3 µM. The same measure for `COC12CC3(O)C(SC)C=CC(OC(C)=O)C3N1C(=O)C(CO)(SC)N(C)C2=O` (stereo not drawn) [Compound 1, geospallin A]: 35 ± 5.2 µM; for `CSC1(CO)C(=O)N2C3C(OC(C)=O)C(=O)C=CC3(O)CC2(SC)C(=O)N1C` (stereo not drawn) [Compound 3, geospallin C]: 29 ± 3.3 µM.
